Like-named read-outs stand apart in the source and are kept apart here.
Molecular target: T1, human isoforms of GABAA (α3ß2γ2) receptors (Homo sapiens, UniProt P18507+P34903)
T1 construct: expressed in transfected cells
Assay: Potentiation of GABA-evoked currents at GABAA (α3β2γ2) receptors, automated patch-clamp (QPatch), Example B1
Assay type: cell-based
Conditions: for Emax: Emax of potentiation, read-out: Max %
Experimental: The ability of compounds exemplified above to potentiate the effect of GABA on GABAA receptors (α3β2γ2) was determined using one or more of the methods described below.
Ltk cells stably expressing the human isoforms of GABAA (α3ß2γ2) receptors were used together with submaximal GABA concentrations to investigate the modulatory effects of the test items. Cells were incubated at 37° C. in a humidified atmosphere with 5% CO2 (rel. humidity about 95%). The cells were continuously maintained in and passaged in sterile culture flasks containing a 1:1 mixture of Dulbecco's modified eagle medium and nutrient mixture D-MEM/F-12 (1×, liquid, with L-Glutamine), supplemented with 10% fetal bovine serum and 1.0% Penicillin/Streptomycin solution. The complete medium as indicated above was supplemented with neomycin. In general, cells were passaged at a confluence of about 80 to 90%. For electrophysiological measurements cells were harvested at a confluence of about 80 to 90% from sterile culture flasks containing culture complete medium. Cells were transferred as suspension in PBS to the QPatch 16X or QPatch HTX system to the centrifuge/washer directly. Expression of GABA receptor was induced by adding Dexamethasone to the cells for 24 to 48 h before experimentation.
Modulatory effects of the compounds of this disclosure were investigated using cells stably transfected with GABA-activated channels of the GABAA (α3ß2γ2) subtype together with submaximal GABA concentrations. Expression of GABA receptor were induced by adding Dexamethasone to the cells for 24 to 48 h before experimentation. In general, cells were passaged at a confluence of about 80 to 90%. For electrophysiological measurements cells were harvested at a confluence of about 80 to 90% from sterile culture flasks containing culture complete medium. Cells were transferred as suspension in PBS to the QPatch 16X or QPatch HTX system to the centrifuge/washer directly. Cells were incubated at 37° C. in a humidified atmosphere with 5% CO2 (rel. humidity about 95%). The cells were continuously maintained in and passaged in sterile culture flasks containing a 1:1 mixture of Dulbecco's modified eagle medium and nutrient mixture D-MEM/F-12 (1×, liquid, with L-Glutamine), supplemented with 10% foetal bovine serum and 1.0% Penicillin/Streptomycin solution and neomycin. The 1× bath solution was made at least every 5 days out of a sterile 10× bath solution, which had been prepared prior to the experimental start of the present study and stored at 1° C. to 9° C. The final bath solution included Sodium Chloride 137 mM, Potassium Chloride 4 mM, Calcium Chloride 1.8 mM, Magnesium Chloride 1 mM, HEPES 10 mM, D-Glucose 10 mM, pH (NaOH) 7.4. The 1× intracellular solution was thawed every day and includes Potassium Chloride 130 mM, Magnesium Chloride 1 mM, Mg-ATP 5 mM, HEPES 10 mM, EGTA 5 Mm, pH (KOH) 7.2. Automated patch-clamping: Cells were transferred as suspension in serum-free medium to the QPatch HTX system and kept in the cell storage tank during experiments. All solutions applied to cells including the intracellular solution were maintained at room temperature (19° C. to 30° C.). After formation of a Gigaohm seal between the patch electrodes and transfected individual Ltk cells were ruptured to assure electrical access to the cell interior (whole-cell patch-configuration). Inward currents were measured upon application of 2.0 μM GABA to patch-clamped cells for 4 s. During the entire experiment the cells were voltage-clamped at a holding potential of −80 mV. For the analysis of test items, GABAA receptors were stimulated by 2.0 μM GABA and test item combinations described below. Thirty-second prewash steps with test items was performed in between two agonist applications. […]

[1] = Ltk cells expressing GABAA α3β2γ2, 2.0 μM GABA, whole-cell, holding potential −80 mV
[2] = Ltk cells expressing GABAA α3β2γ2, 2.0 μM GABA, whole-cell, holding potential −80 mV, read-out: EC50

T1 sequence (P34903 29-492): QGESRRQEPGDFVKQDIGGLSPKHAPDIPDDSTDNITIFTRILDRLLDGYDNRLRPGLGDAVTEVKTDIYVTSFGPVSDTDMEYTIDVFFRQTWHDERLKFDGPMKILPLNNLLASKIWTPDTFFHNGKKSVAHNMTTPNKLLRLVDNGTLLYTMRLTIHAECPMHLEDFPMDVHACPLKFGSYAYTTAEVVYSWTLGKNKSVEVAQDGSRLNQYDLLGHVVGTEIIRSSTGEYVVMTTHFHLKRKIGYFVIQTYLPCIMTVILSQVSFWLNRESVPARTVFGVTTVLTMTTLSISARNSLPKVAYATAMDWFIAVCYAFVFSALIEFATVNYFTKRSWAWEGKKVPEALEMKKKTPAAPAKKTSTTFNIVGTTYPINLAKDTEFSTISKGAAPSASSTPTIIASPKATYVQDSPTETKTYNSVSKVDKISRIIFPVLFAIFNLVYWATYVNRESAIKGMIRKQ
T1 sequence (P47870 25-512 partner limits assumed): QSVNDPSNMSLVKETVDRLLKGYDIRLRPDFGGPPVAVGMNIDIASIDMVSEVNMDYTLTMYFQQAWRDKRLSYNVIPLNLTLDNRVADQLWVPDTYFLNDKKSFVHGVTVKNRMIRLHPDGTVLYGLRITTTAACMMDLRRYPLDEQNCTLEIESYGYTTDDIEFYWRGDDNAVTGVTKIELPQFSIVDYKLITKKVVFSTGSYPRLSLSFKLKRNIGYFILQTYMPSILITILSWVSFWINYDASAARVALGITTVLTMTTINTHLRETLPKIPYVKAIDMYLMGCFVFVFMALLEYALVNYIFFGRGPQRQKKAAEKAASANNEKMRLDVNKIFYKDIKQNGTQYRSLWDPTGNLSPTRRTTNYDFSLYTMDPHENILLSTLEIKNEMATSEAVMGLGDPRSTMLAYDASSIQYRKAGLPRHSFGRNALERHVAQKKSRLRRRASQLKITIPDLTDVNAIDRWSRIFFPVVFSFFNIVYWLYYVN
T1 sequence (P18507 40-475): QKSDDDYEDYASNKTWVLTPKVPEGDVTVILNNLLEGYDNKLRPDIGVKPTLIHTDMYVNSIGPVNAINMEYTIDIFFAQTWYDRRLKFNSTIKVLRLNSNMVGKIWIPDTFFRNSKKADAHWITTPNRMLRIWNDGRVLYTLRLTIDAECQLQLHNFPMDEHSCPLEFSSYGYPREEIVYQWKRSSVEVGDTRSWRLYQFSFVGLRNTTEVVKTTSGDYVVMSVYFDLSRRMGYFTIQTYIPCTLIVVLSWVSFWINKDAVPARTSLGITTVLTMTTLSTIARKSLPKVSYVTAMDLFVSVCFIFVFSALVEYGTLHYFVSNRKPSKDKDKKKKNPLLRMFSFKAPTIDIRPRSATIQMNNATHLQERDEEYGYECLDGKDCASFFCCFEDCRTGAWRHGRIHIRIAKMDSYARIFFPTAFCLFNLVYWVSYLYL

Structure (SMILES): NC(=O)C(NCc1ccccc1)c1cn2c(n1)CN=C(c1ccccc1F)c1cc(Cl)ccc1-2 (centres unmarked) [Compound 232, 2-(Benzylamino)-2-[12-chloro-9-(2-fluorophenyl)-2,5,8-triazatricyclo[8.4.0.0^2,6]tetradeca-1 (10),3,5,8,11,13-hexaen-4-yl]acetamide]
- EC50: 50 to 100 nM
- Emax [1]: 50 to 100%

Structure (SMILES): NC(=O)c1cn2c(n1)CN=C(c1ccccc1F)c1cc(Cl)ccc1-2 [Compound 238, 8-chloro-6-(2-fluorophenyl)-4H-imidazo[1,2-a][1,4] benzodiazepine-2-carboxamide]
- EC50: < 50 nM
- Emax [1]: > 100%

Structure (SMILES): Cc1ccc2c(c1)C(c1ccccc1F)=NCc1nc(C(=O)O)cn1-2 [Compound 226, 6-(2-fluorophenyl)-8-methyl-4H-imidazo[1,2-a][1,4]benzodiazepine-2-carboxylic acid]
- EC50: < 50 nM
- Emax [1]: > 100%

Structure (SMILES): O=C(O)c1cn2c(n1)CN=C(c1cccc(F)c1)c1cc(Cl)ccc1-2 [Compound 218, 8-chloro-6-(3-fluorophenyl)-4H-imidazo[1,2-a][1,4]benzodiazepine-2-carboxylic acid]
- EC50: > 100 nM
- Emax [1]: > 100%

Structure (SMILES): CC(C)CC1N=C(c2ccccc2F)c2cc(Cl)ccc2-n2cc(C(=O)O)nc21 (centres unmarked) [Compound 102, 8-chloro-6-(2-fluorophenyl)-4-isobutyl-4H-imidazo[1,2-a][1,4]benzodiazepine-2-carboxylic acid]
- Emax [1]: 50 to 100%
- EC50 [2]: > 100 nM

Structure (SMILES): O=C(O)c1cn2c(n1)CN=C(c1ccccc1F)c1cc(Cl)c(F)cc1-2 [Compound 201, 8-chloro-9-fluoro-6-(2-fluorophenyl)-4H-imidazo[1,2-a][1,4]benzodiazepine-2-carboxylic acid]
- EC50: < 50 nM
- Emax [1]: > 100%

Structure (SMILES): COc1cc2c(cc1Cl)C(c1ccccc1F)=NCc1nc(C(=O)O)cn1-2 [Compound 205, 8-chloro-6-(2-fluorophenyl)-9-methoxy-4H-imidazo[1,2-a][1,4]benzodiazepine-2-carboxylic acid]
- EC50: < 50 nM
- Emax [1]: > 100%

Structure (SMILES): O=C(O)Cc1cn2c(n1)CN=C(c1ccccc1F)c1cc(Cl)ccc1-2 [Compound 233, 2-(8-chloro-6-(2-fluorophenyl)-4H-benzo[f]imidazo[1,2-a][1,4]diazepin-2-yl) acetic acid]
- EC50: < 50 nM
- Emax [1]: > 100%

Structure (SMILES): NCCNC(=O)c1cn2c(n1)CN=C(c1ccccc1F)c1cc(Cl)ccc1-2 [Compound 210, N-(2-aminoethyl)-8-chloro-6-(2-fluorophenyl)-4H-imidazo[1,2-a][1,4]benzodiazepine-2-carboxamide]
- EC50: < 50 nM
- Emax [1]: > 100%

Structure (SMILES): CS(=N)(=O)CCNC(=O)c1cn2c(n1)CN=C(c1ccccc1F)c1cc(Cl)ccc1-2 (centres unmarked) [Compound 208, 8-chloro-6-(2-fluorophenyl)-N-[2-(methylsulfonimidoyl)ethyl]-4H-imidazo[1,2-a][1,4]benzodiazepine-2-carboxamide]
- EC50: < 50 nM
- Emax [1]: 50 to 100%

Structure (SMILES): O=C(O)c1cn2c(n1)CN=C(c1ccccc1F)c1cc(C3CC3)ccc1-2 [Compound 222, 8-cyclopropyl-6-(2-fluorophenyl)-4H-imidazo[1,2-a][1,4]benzodiazepine-2-carboxylic acid]
- EC50: 50 to 100 nM
- Emax [1]: > 100%

Structure (SMILES): O=C(O)c1nc2n(c1CNC1CCCCC1)-c1ccc(Cl)cc1C(c1ccccc1F)=NC2 [Compound 244, 8-chloro-1-((cyclohexylamino)methyl)-6-(2-fluorophenyl)-4H-benzo[f]imidazo[1,2-a][1,4]diazepine-2-carboxylic acid]
- EC50: > 100 nM
- Emax [1]: > 100%

Structure (SMILES): CC1N=C(c2ccccc2F)c2cc(Cl)ccc2-n2cc(C(=O)O)nc21 (racemic) [Compound 101, 12-Chloro-9-(2-fluorophenyl)-7-methyl-2,5,8-triazatricyclo[8.4.0.0^2,6] tetradeca-1 (10),3,5,8,11,13-hexaene-4-carboxylic acid]
- EC50: < 50 nM
- Emax [1]: > 100%

Structure (SMILES): O=C(O)c1nc2n(c1CN1CCC1)-c1ccc(Cl)cc1C(c1ccccc1F)=NC2 [Compound 243, 1-(azetidin-1-ylmethyl)-8-chloro-6-(2-fluorophenyl)-4H-benzo[f]imidazo[1,2-a][1,4]diazepine-2-carboxylic acid]
- EC50: > 100 nM
- Emax [1]: > 100%

Structure (SMILES): O=C(O)c1cn2c(n1)CN=C(c1ccccc1F)c1cc(F)ccc1-2 [Compound 221, 8-fluoro-6-(2-fluorophenyl)-4H-imidazo[1,2-a][1,4]benzodiazepine-2-carboxylic acid]
- EC50: 50 to 100 nM
- Emax [1]: 50 to 100%

Structure (SMILES): O=C(O)c1cn2c(n1)CN=C(c1ccc(F)cc1)c1cc(Cl)ccc1-2 [Compound 219, 8-chloro-6-(4-fluorophenyl)-4H-imidazo[1,2-a][1,4]benzodiazepine-2-carboxylic acid]
- Emax [1]: 50 to 100%

Structure (SMILES): O=C(O)c1nc2n(c1CN1CCCC1)-c1ccc(Cl)cc1C(c1ccccc1F)=NC2 [Compound 247, 8-chloro-6-(2-fluorophenyl)-1-(pyrrolidin-1-ylmethyl)-4H-benzo[f]imidazo[1,2-a][1,4]diazepine-2-carboxylic acid]
- EC50: > 100 nM
- Emax [1]: 50 to 100%

Structure (SMILES): O=C(O)c1cn2c(n1)C[N+]([O-])=C(c1ccccc1F)c1cc(Cl)ccc1-2 [Compound 236, 2-carboxy-8-chloro-6-(2-fluorophenyl)-4H-514-benzo[e]imidazo[2,1-c][1,4]diazepin-5-olate]
- EC50: > 100 nM
- Emax [1]: 50 to 100%

Structure (SMILES): O=C(O)c1cn2c(n1)CN=C(c1ccccc1F)c1cc(Cl)cc(F)c1-2 [Compound 203, 12-Chloro-14-fluoro-9-(2-fluorophenyl)-2,5,8-triazatricyclo[8.4.0.0^2,6] tetradeca-1 (10),3,5,8,11,13-hexaene-4-carboxylic acid]
- EC50: 50 to 100 nM
- Emax [1]: 50 to 100%

Structure (SMILES): O=C(O[C@@H]1O[C@H](C(=O)O)[C@@H](O)[C@H](O)[C@H]1O)c1cn2c(n1)CN=C(c1ccccc1F)c1cc(Cl)ccc1-2 [Compound 234, (2S,3S,4S,5R,6S)-6-((8-chloro-6-(2-fluorophenyl)-4H-benzo[f]imidazo[1,2-a][1,4]diazepine-2-carbonyl)oxy)-3,4,5-trihydroxytetrahydro-2H-pyran-2-carboxylic acid]
- Emax [1]: 50 to 100%
- EC50 [2]: < 50 nM

Structure (SMILES): O=C(O)c1nc2n(c1CN1CCOCC1)-c1ccc(Cl)cc1C(c1ccccc1F)=NC2 [Compound 245, 8-chloro-6-(2-fluorophenyl)-1-(morpholinomethyl)-4H-benzo[f]imidazo[1,2-a] [1,4]diazepine-2-carboxylic acid]
- EC50: > 100 nM
- Emax [1]: > 100%

From US20260042763A1, “PE[…] POSITIVE […] THE TREATMENT OF IRRITABLE BOWEL SYNDROME AND OTHER AILMENTS OF THE PERIPHERAL NERVOUS SYSTEM” (The Johns Hopkins University, priority 2022, published 2026)
